Consider seven molecules from patent publication US20240374566A1, “METHODS AND COMPOSITIONS FOR THE TREATMENT OF CANCER” (Lankenau Institute for Medical Resesarch, priority 2017, published 2024).

Data set [1] relates to lymphoma, lung cancer and sarcoma. The settings on record: cited from earlier work.
For data set [2] the following is noted: mouse, rat and dog; cited from earlier work.
In data set [3] the test system is human xenograft tumor. The settings on record: mice; cited from earlier work.
In data set [4] the test system is 4T1 pulmonary metastases. Description: Neovascular density (anti-Cav1 staining) within 4T1 lung metastases after treatment. It is filed as in vivo, mouse. The method, then:
Pulmonary metastasis studies with the 4T1 mouse mammary carcinoma-derived cell line (Aslakson et al. (1992) Cancer Res., 52:1399-1405) were carried out by injecting 1×10^4 cells in 50 μl serum free medium into the number 4 mammary fatpad to establish an orthotopic tumor which then spontaneously metastasized to the lungs. For visualization of the pulmonary metastasis burden, lungs were inflated with 15% India ink dye, washed, and bleached in Fekete's solution. For immunofluorescence detection of pulmonary metastasis vasculature, lungs were inflated with 50% OCT and frozen in OCT blocks followed by 4 μm sectioning using the CryoJane tape transfer system. Blood vessels within the metastatic nodules were visualized by fluorescence staining with rabbit anti-mouse Caveolin1 polyclonal antibody (Cat. #3238S, Cell Signaling Technology, Boston, MA). For quantitatively evaluating vessel density within the metastatic nodules, multiple fields were acquired per mouse lung on a Zeiss inverted microscope with 40× objective. The pixel density corresponding to the positive Cav1 signal per field was determined in Adobe Photoshop, and these values were then averaged to determine the overall mean value per mouse. For IDO1 inhibitor treatment studies, mice bearing established metastases at 3.5 weeks following 4T1 engraftment were administered 50 mg/kg epacadostat (ChemieTek; Indianapolis, IN) in 100 μl vehicle (3% N,N-dimethylacetamide, 10% 2-hydroxylpropyl-β-cyclodextrin) by oral gavage b.i.d. (twice daily) over 72 hours at which point the animals were euthanized for analysis. Positive control animals were administered a single intraperitoneal (i.p.) injection of 50 mg/kg cyclophosphamide (Baxter; Deefield, IL) in 100 μl sterile saline and euthanized 72 hours later for analysis. […]

Data set [5] concerns 4T1 lung metastases. Description: Hypoxyprobe staining of hypoxic regions within 4T1 lung metastases. The settings on record: epacadostat 50 mg/kg oral gavage b.i.d. over 72 hours. It is filed as in vivo, mouse. As to the method:
For IDO1 inhibitor treatment studies looking at tumor hypoxia, mice bearing established metastases at 3.5 weeks following 4T1 engraftment were administered either 50 mg/kg epacadostat (ChemieTek; Indianapolis, IN) in 100 μl vehicle (3% N,N-dimethylacetamide, 10% 2-hydroxylpropyl-β-cyclodextrin) by oral gavage b.i.d. (twice daily) over 72 hours, or 400 mg/kg indoximod (Sigma-Aldrich; St. Louis, MO) in 100 μl vehicle (0.5% Tween 80/0.5% Methylcellulose v/v in water) by oral gavage b.i.d. (twice daily) over 72 hours.
For visualizing regions of hypoxia within 4T1 lung metastases, the Hypoxyprobe™ Green Kit (Hydroxyprobe, Inc.; Burlington, MA) was used as per the manufacturer's instructions. 1 hour prior to euthanasia, mice were injected intravenously with 60 mg/kg Hypoxyprobe™ (pimonidazole HCl). Lung sections were stained with the FITC-conjugated mouse IgG1 monoclonal antibody (4.3.11.3) provided by the supplier that specifically binds to protein adducts of pimonidazole.

Data set [6] deals with tumors. The settings on record: clinical study; cited from earlier work.
Data set [7] concerns large, vascularized tumors. The following applies: requires IFNγ receptor expression on normal host cells; cited from earlier work.
Data set [8] relates to allogeneic mouse concepti. The settings on record: in vivo; cited from earlier work.

Entries after “also recorded” stand apart in the source; their conditions may differ.

For the molecule `C=CC1=C(C)c2cc3[n-]c(cc4[n-]c(cc5nc(cc1n2)C(C)=C5C=C)c(C)c4CCC(=O)O)c(CCC(=O)O)c3C.[Zn+2]` [ZnPPIX, zinc protoporphyrin IX], the “antitumor effect in mice” value in data set [1] is “effective in reducing lymphoma, lung cancer and sarcoma”.

Take `Cc1cccc(CC(=O)N2CCc3c2ccc(-c2cn(C)c4ncnc(N)c24)c3F)n1` [GSK2656157]: in data set [2], the blood clearance entry is listed as “low to moderate” and the oral bioavailability result was “good”. For the same molecule, in data set [3], the “human xenograft tumor growth” value was “delay of various human xenograft tumor growths”; the “weight loss and effect on pancreatic insulin production” value is reported as “without significant weight loss and/or effect on pancreatic insulin production”.

As to `NS(=O)(=O)NCCNc1nonc1C(=NO)Nc1ccc(F)c(Br)c1` [epacadostat], the “reduction in metastatic tumor neovascularization relative to vehicle alone” value in data set [4] (50 mg/kg oral gavage b.i.d. over 72 hours, established 4T1 pulmonary metastases 3.5 weeks after engraftment, P<0.01) is reported as 3.2 fold. Further, the “metastatic tumor neovascularization relative to vehicle (in words)” value in data set [4] (epacadostat 50 mg/kg oral gavage b.i.d. over 72 hours, established 4T1 pulmonary metastases) was “reduced level of neovascularization; also recorded: clear reduction in metastatic tumor neovascularization”. In data set [5], the “hypoxia in metastatic tumor (Hypoxyprobe staining) relative to vehicle” value was “clear evidence of elevated hypoxia”.

Consider `Cn1cc(C[C@@H](N)C(=O)O)c2ccccc21` [indoximod, 1-methyl-D-tryptophan], for which, in data set [6], the “sensitization of tumors to salvage chemotherapy” value is given as “appeared to sensitize tumors to salvage chemotherapy”.

With `O=P1(N(CCCl)CCCl)NCCCO1` (centres unmarked) [cyclophosphamide], the “metastatic tumor neovascularization, positive control (in words)” value in data set [4] (single i.p. injection of 50 mg/kg, evaluated 72 hours later, compared with the effect of epacadostat) is recorded as “comparable”. For the same molecule, the tumor rejection result in data set [7] is given as “immune-dependent rejection of large, vascularized tumors”.

Turning to `Cn1cc(-c2ccc3c(c2)CCN3C(=O)Cc2cccc(C(F)(F)F)c2)c2c(N)ncnc21` [GSK2606414], in data set [2], the blood clearance entry is “low to moderate” and the oral bioavailability result is on record as “good”.

In the case of `Cn1cc(C[C@H](N)C(=O)O)c2ccccc21` [1MT, 1-methyl-tryptophan], the “rejection of allogeneic mouse concepti” value in data set [8] is recorded as “could elicit T cell-dependent rejection of allogeneic mouse concepti”.
